The source made the active and inactive calls.
Tests used:
Type in all cases: functional, organism-based
Klebsiella pneumoniae = test: Antibacterial activity against Klebsiella pneumoniae DSM 26371 assessed as inhibition of bacterial growth incubated for 20 hrs by agar disk-diffusion method
Escherichia coli = test: Antibacterial activity against Escherichia coli ATCC 35218 assessed as inhibition of bacterial growth incubated for 20 hrs by agar disk-diffusion method
Staphylococcus delphini = test: Antibacterial activity against Staphylococcus delphini DSM 20771 assessed as inhibition of bacterial growth incubated for 20 hrs by agar disk-diffusion method
Staphylococcus aureus = test: Antibacterial activity against Staphylococcus aureus ATCC29213 assessed as inhibition of bacterial growth incubated for 20 hrs by agar disk-diffusion method
Niallia circulans = test: Antibacterial activity against Bacillus circulans NRRL B-380 assessed as inhibition of bacterial growth incubated for 20 hrs by agar disk-diffusion method
Enterococcus faecalis = test: Antibacterial activity against Enterococcus faecalis DSM 2570 assessed as inhibition of bacterial growth incubated for 20 hrs by agar disk-diffusion method
Bacillus subtilis = test: Antibacterial activity against Bacillus subtilis […] assessed as inhibition of bacterial growth incubated for 20 hrs by agar disk-diffusion method
Pseudomonas aeruginosa = test: Antibacterial activity against Pseudomonas aeruginosa ATCC 27853 assessed as inhibition of bacterial growth incubated for 20 hrs by agar disk-diffusion method

Measured: Activity

CSCC[C@@H]1NC(=O)[C@@H]2C[C@@]3(O)c4ccccc4N[C@H]3N2C1=O
inactive: Klebsiella pneumoniae | Escherichia coli | Staphylococcus delphini | Staphylococcus aureus | Niallia circulans | Enterococcus faecalis | Bacillus subtilis | Pseudomonas aeruginosa

O=C1N[C@@H](Cc2c[nH]c3ccccc23)C(=O)N2[C@H]1C[C@@]1(O)c3ccccc3N[C@@H]21
inactive: Klebsiella pneumoniae | Escherichia coli | Staphylococcus delphini | Staphylococcus aureus | Niallia circulans | Enterococcus faecalis | Bacillus subtilis | Pseudomonas aeruginosa

O=C1N[C@@H](Cc2ccccc2)C(=O)N2[C@H]1C[C@@]1(O)c3ccccc3N[C@@H]21
inactive: Klebsiella pneumoniae | Escherichia coli | Staphylococcus delphini | Staphylococcus aureus | Niallia circulans | Enterococcus faecalis | Bacillus subtilis | Pseudomonas aeruginosa

O=C1N[C@@H](Cc2ccc(O)cc2)C(=O)N2[C@H]1C[C@@]1(O)c3ccccc3N[C@@H]21
inactive: Klebsiella pneumoniae | Escherichia coli | Staphylococcus delphini | Staphylococcus aureus | Niallia circulans | Enterococcus faecalis | Bacillus subtilis | Pseudomonas aeruginosa

CC(C)C[C@@H]1NC(=O)[C@@H]2C[C@@]3(O)c4ccccc4N[C@H]3N2C1=O
inactive: Klebsiella pneumoniae | Escherichia coli | Staphylococcus delphini | Staphylococcus aureus | Niallia circulans | Enterococcus faecalis | Bacillus subtilis | Pseudomonas aeruginosa

C[C@@H]1NC(=O)[C@@H]2C[C@@]3(O)c4ccccc4N[C@H]3N2C1=O
inactive: Klebsiella pneumoniae | Escherichia coli | Staphylococcus delphini | Staphylococcus aureus | Niallia circulans | Enterococcus faecalis | Bacillus subtilis | Pseudomonas aeruginosa

— ChEMBL document CHEMBL5335852, “The Promiscuous Flavin-Dependent Monooxygenase PboD from Aspergillus ustus Increases the Structural Diversity of Hydroxylated Pyrroloindoline Diketopiperazines” (J Nat Prod, 2024)
